Publication PMC9369419 (International Journal of Molecular Sciences, 2022)

What was measured:
GluK1b(Q) = molecular target: T1, GluK1b(Q) (Rattus norvegicus, UniProt P22756); experiment: Intracellular Ca2+ imaging assay, HEK293 cells expressing GluK1b(Q); type: cell-based; details: 10 µM compound, Ca2+ fluorescence, read-out: inhibition of agonist-evoked responses at GluK1
T1 construct: expressed in transfected cells
Source text: For the determination of antagonistic activity of compounds at GluK1, GluK3 and GluA2 receptors, stable HEK293 cell lines expressing rat GluK1b(Q), GluK3a, and GluA2(Q)i were created. A polyclonal stable cell line expressing GluK3a was created as described previously. For the creation of polyclonal stable cell lines expressing GluK1and GluA2 receptors, cDNA encoding blasticidin-S deaminase (blas) enzymes were inserted into the pIRES plasmid vector (Clontech, Mountain View, CA, USA) to create the plasmid vector pRES(blas). […] For functional assays, cells were plated into clear-bottomed, black 96-well fluorescence culture plates (Corning, Vordingborg, Denmark), and when >70% confluent, the cells were loaded with 2 μM Fluo 4-AM calcium sensitive dye (Abcam, Cambridge, UK) and used for the imaging of agonist-evoked changes in intracellular Ca^2+ using a FlexStation I plate reader (Molecular Devices, San Jose, CA, USA). […] Changes in dye fluorescence in response to the addition of an agonist solution were then measured at 538 nm using excitation at 485 nm and emission cut-off at 515 nm. Baseline fluorescence was measured for 16 s before the addition of 50 µL agonist solution to each well of the assay plate, and fluorescence was measured for 120 to 160 s after addition of the agonists. […] Responses were determined in at least triplicate at each compound concentration.

GluA2 = molecular target: T2, GluA2 (Rattus norvegicus, UniProt P19491); experiment: Radioligand binding at recombinant homomeric GluA2 in Sf9 membranes; details: recombinant rat homomeric receptor, [3H]-(RS)-AMPA, mean ± SEM
T2 construct: made in house; host or cells: Sf9 insect cells (membranes)
T2 sequence (P19491 22-883): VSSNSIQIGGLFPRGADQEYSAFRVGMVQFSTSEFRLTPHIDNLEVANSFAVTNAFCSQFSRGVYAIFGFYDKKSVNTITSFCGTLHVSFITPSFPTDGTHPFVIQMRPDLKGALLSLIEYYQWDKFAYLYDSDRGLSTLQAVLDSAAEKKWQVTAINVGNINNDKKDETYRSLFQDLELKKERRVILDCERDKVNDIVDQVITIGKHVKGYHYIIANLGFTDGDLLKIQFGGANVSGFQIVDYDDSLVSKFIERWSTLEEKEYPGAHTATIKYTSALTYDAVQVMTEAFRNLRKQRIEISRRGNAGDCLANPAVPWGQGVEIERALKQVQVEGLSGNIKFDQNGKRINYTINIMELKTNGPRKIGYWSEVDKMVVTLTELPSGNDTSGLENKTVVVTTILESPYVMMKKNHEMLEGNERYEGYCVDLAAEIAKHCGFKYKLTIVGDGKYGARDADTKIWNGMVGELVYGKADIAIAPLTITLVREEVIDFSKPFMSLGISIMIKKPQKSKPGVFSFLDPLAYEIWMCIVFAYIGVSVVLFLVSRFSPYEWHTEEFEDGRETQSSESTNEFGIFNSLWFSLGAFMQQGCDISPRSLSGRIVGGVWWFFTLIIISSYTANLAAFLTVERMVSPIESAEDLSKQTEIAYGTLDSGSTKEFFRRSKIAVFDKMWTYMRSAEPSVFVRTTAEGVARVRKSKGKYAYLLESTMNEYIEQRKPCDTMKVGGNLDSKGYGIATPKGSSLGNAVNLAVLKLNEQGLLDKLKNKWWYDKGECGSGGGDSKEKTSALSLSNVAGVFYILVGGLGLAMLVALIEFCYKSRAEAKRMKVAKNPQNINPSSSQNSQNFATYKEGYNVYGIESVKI
Protocol: (§1) Ligand binding affinities at recombinant rat homomeric GluA2, GluK1−3, and GluK5 were determined as previously detailed. […] The filters were dried at 70 °C for 1 h, and 50 μL/well Microscint 20 (PerkinElmer, Waltham, MA, USA) was added. Radioactivity was detected with a TopCounter (PerkinElmer, Waltham, MA, USA). GluA2 and GluK5 assays were filtered on GF/C type filters using Millipore 12-well filtration manifolds (Merck Life Science, Søborg, Denmark) and washed twice with ice-cold assay buffer. Filters were placed in pony vials (PerkinElmer, Waltham, MA, USA), 3 mL of Ultima Gold scintillation fluid (PerkinElmer, Waltham, MA, USA) was added, and DPM (disintegrations per minute) were determined using a TriCarb 2900 scintillation counter (PerkinElmer, Waltham, MA, USA).
(§2) All competition curves (n ≥ 3 per ligand) were determined in triplicate. Data were analyzed using GraphPad Prism 6 (GraphPad Software, San Diego, CA, USA) to determine ligand affinity (Ki) and Hill coefficient (nH) using the one-site Ki and four-parameter logistics equations, respectively.

mGluR2 = mGluR2 functional assay (Ca2+/Fluo-4, mGlu2/Gqo5-HEK293 cells); type: cell-based; details: 0.1 mM compound
Protocol: Culture media, serum, antibiotics and buffers for cell culture were obtained from Invitrogen (Paisley, UK). The Fluo-4/AM dye was obtained from Molecular Probes (Eugene, OR, USA), and Glu was purchased from Sigma-Aldrich. The construction and basic pharmacological characterization of the stable mGlu2/Gqo5-HEK293 cell line has been described previously.
Cell culture and Ca^2+/Fluo-4 Assay. The mGlu2/Gqo5-HEK293 cells were cultured in Dulbecco’s Modified Eagle Medium-Glutamax-I supplemented with 100 U/mL penicillin, 100 µg/mL streptomycin, 5% dialyzed fetal bovine serum, 100 µg/mL zeocin and 1 mg/mL G418. The cells were split into poly-D-lysine-coated black 96-well plates with clear bottoms (6 × 10^4 cells/well). The following day, the culture medium was aspirated, and the cells were incubated in 50 µL assay buffer (Hanks Buffered Salt Solution containing 20 mM HEPES, 1 mM CaCl2, 1 mM MgCl2 and 2.5 mM probenecid, pH 7.4) supplemented with […] Fluo–4/AM at 37 °C for 1 h. […] The 96-well plate was assayed in a FLEXStation (Molecular Devices, Crawley, UK) measuring emission (in fluorescence units (FU)) at 525 nm caused by excitation at 485 nm before and up to 90 s after the addition of 33.3 µL agonist-containing assay buffer. […]

GluK3a = molecular target: T3, GluK3a (Rattus norvegicus, UniProt P42264); experiment: Intracellular Ca2+ imaging assay, HEK293 cells expressing GluK3a; type: cell-based
T3 construct: expressed in transfected cells
T3 sequence (P42264 32-919): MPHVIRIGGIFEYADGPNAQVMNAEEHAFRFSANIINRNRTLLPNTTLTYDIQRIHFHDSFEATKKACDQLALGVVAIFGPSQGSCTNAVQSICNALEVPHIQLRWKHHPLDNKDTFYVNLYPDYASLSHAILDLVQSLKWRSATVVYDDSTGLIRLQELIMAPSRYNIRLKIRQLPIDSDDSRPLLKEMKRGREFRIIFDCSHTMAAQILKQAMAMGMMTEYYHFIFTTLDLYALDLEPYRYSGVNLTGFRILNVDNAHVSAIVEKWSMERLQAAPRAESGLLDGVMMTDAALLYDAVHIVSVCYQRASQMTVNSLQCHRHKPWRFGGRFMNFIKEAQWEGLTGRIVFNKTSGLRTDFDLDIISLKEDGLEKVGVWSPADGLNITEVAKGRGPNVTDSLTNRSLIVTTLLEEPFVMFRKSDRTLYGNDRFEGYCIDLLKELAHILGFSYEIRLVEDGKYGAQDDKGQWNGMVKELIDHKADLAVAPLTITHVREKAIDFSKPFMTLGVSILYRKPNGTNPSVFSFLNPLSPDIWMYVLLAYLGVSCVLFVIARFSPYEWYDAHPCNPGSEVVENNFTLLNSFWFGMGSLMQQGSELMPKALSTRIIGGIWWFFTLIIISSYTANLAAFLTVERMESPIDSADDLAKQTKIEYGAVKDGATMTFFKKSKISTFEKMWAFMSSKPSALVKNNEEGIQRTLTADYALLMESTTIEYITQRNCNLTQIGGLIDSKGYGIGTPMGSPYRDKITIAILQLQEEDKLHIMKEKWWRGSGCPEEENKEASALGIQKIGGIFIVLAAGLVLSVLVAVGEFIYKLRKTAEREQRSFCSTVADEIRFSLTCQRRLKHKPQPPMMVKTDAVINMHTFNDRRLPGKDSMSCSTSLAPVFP
Source text: For the determination of antagonistic activity of compounds at GluK1, GluK3 and GluA2 receptors, stable HEK293 cell lines expressing rat GluK1b(Q), GluK3a, and GluA2(Q)i were created. A polyclonal stable cell line expressing GluK3a was created as described previously. For the creation of polyclonal stable cell lines expressing GluK1and GluA2 receptors, cDNA encoding blasticidin-S deaminase (blas) enzymes were inserted into the pIRES plasmid vector (Clontech, Mountain View, CA, USA) to create the plasmid vector pRES(blas). Subsequently, cDNA for rat GluK1(Q)1b and the flip isoform of rat GluA2(Q)i were inserted into pRES(blas) to create the expression constructs GluK1b(Q)pIRES(blas) and GluA2i(Q)pIRES(blas), respectively. These were used to transfect GripTite^TM HEK293 cells followed by selecting with 20 µg/mL blasticidin (Invivogen, Toulouse, France) and 0.50 mg/mL geneticin in the presence of 20 µM of the AMPA receptor antagonist CNQX (Tocris, Bristol, UK) until stably transfected GluK1b(Q) and GluA2(Q)i cell lines were obtained. For functional assays, cells were plated into clear-bottomed, black 96-well fluorescence culture plates (Corning, Vordingborg, Denmark), and when >70% confluent, the cells were loaded with 2 μM Fluo 4-AM calcium sensitive dye (Abcam, Cambridge, UK) and used for the imaging of agonist-evoked changes in intracellular Ca^2+ using a FlexStation I plate reader (Molecular Devices, San Jose, CA, USA). […] Changes in dye fluorescence in response to the addition of an agonist solution were then measured at 538 nm using excitation at 485 nm and emission cut-off at 515 nm. Baseline fluorescence was measured for 16 s before the addition of 50 µL agonist solution to each well of the assay plate, and fluorescence was measured for 120 to 160 s after addition of the agonists. Peak change in fluorescence was calculated as the difference between the maximal observed increase in fluorescence and pre-agonist baseline fluorescence. The agonist solutions contained 100 µM KA together with 300 µM of the KAR positive allosteric modulator BPAM344 (Sigma-Aldrich Chemical, St. Louis, MO, USA) for GluK1 and GluK3 experiments or 100 µM glutamate together with 100 µM of the AMPAR positive allosteric modulator cyclothiazide for GluA2 experiments (HelloBio, Bristol, UK). Responses were determined in at least triplicate at each compound concentration.

GluK2 = molecular target: T4, GluK2 (Rattus norvegicus, UniProt P42260); experiment: Radioligand binding at recombinant homomeric GluK2 in Sf9 membranes; details: recombinant rat homomeric receptor, [3H]-kainic acid, mean ± SEM
T4 construct: made in house; host or cells: Sf9 insect cells (membranes)
T4 sequence (P42260 32-908): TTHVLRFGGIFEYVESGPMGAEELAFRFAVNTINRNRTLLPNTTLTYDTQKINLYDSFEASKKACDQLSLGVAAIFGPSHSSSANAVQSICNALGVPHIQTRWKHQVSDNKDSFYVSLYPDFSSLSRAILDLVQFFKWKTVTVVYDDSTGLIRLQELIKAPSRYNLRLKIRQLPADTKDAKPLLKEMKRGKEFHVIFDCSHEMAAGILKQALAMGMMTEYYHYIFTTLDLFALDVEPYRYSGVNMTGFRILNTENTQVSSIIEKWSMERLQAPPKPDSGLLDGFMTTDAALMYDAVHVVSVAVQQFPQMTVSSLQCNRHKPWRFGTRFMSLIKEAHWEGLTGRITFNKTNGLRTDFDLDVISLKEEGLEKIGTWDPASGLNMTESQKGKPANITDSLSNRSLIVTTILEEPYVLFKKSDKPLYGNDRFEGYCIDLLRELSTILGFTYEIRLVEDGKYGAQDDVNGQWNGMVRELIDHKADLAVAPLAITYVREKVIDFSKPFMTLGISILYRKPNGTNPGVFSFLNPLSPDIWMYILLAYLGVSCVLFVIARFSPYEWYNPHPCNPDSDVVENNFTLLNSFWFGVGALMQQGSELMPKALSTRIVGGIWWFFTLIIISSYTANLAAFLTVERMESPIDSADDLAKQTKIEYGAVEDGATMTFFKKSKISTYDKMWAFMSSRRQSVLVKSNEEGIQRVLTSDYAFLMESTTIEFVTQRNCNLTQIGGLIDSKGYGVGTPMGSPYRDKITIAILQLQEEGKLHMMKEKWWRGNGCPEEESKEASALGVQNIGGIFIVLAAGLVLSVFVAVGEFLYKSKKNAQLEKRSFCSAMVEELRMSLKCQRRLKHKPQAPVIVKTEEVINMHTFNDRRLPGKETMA
Protocol: as §1, §2

T1 sequence (P22756 31-920 isoform P22756-4 limits assumed): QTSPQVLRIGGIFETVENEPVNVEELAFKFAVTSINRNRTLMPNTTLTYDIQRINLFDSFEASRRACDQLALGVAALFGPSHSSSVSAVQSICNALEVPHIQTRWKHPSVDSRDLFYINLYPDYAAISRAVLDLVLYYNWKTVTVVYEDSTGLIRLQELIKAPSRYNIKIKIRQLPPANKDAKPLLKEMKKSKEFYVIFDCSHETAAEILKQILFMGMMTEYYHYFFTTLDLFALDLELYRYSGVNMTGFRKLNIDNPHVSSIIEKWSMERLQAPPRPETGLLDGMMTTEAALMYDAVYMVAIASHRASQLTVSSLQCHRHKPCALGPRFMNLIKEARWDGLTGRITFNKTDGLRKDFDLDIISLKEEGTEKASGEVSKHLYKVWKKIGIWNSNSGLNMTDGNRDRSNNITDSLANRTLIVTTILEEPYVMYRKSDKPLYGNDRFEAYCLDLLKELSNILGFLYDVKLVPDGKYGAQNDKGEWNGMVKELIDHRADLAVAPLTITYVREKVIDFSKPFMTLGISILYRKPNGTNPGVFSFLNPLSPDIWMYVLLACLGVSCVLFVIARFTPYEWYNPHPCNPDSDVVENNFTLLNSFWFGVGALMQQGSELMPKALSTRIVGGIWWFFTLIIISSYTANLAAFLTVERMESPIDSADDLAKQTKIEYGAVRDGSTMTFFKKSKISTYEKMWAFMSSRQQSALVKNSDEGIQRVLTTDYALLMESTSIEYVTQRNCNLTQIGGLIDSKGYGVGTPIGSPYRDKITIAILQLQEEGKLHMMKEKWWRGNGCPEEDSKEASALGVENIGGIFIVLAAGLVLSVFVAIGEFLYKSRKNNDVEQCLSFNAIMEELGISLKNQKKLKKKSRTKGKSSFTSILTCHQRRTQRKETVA

- inhibition at 10 µM (GluK1b(Q)): < 5%
- Ki (GluA2): > 100 µM
- melting point: 314 to 315 °C
- inhibition of agonist-evoked responses at GluK3 (GluK3a; 10 µM compound, Ca2+ fluorescence): full inhibition
- IC50 (GluK3a; 100 µM KA + 300 µM BPAM344, Ca2+ fluorescence, read-out: IC50, antagonism of agonist-evoked responses at GluK3): 3.6 µM
- Ki (GluK2): > 100 µM
SMILES: O=C(Nn1c(=O)c(=O)[nH]c2cc(C#Cc3cnc4cccnn34)ccc21)c1ccccc1 [Compound 28]
- agonist or antagonist activity at mGluR2 (mGluR2): neither agonistic nor antagonistic
